Source: ChEMBL document CHEMBL2413056, “Adipogenetic effects of retrofractamide A derivatives in 3T3-L1 cells” (Bioorg Med Chem Lett, 2013)
Active and inactive are the calls of the source. No cut-off for these calls is given here.

Assays:
3T3-L1 [1] = test: Adipogenetic activity in mouse 3T3L1 cells assessed as increase in triglyceride level at 30 uM relative to control; assay type: functional
3T3-L1 [2] = test: Adipogenetic activity in mouse 3T3L1 cells assessed as increase in triglyceride level at 10 uM relative to control; assay type: functional
[3] = Cytotoxicity against mouse 3T3L1 cells assessed as cell viability at 3 uM by CCK8 assay relative to control; assay type: cell-based; details: 3T3-L1 cells, read-out: Activity
[4] = Cytotoxicity against mouse 3T3L1 cells assessed as cell viability at 1 uM by CCK8 assay relative to control; assay type: cell-based; details: 3T3-L1 cells, read-out: Activity
[5] = Cytotoxicity against mouse 3T3L1 cells assessed as cell viability at 0.3 uM by CCK8 assay relative to control; assay type: cell-based; details: 3T3-L1 cells, read-out: Activity
[6] = Cytotoxicity against mouse 3T3L1 cells assessed as cell viability at 10 uM by CCK8 assay relative to control; assay type: cell-based; details: 3T3-L1 cells, read-out: Activity
[7] = Cytotoxicity against mouse 3T3L1 cells assessed as cell viability at 30 uM by CCK8 assay relative to control; assay type: cell-based; details: 3T3-L1 cells, read-out: Activity
3T3-L1 [8] = test: Increase of 2-deoxyglucose uptake in mouse 3T3L1 cells using 2-deoxy-D-(2,6-3H)-glucose at 1 uM after 2 hrs by liquid scintillation counting; assay type: functional, cell-based
3T3-L1 [9] = test: Increase of C/EBPdelta mRNA expression in mouse 3T3L1 cells at 10 uM by RT-PCR analysis relative to beta-actin mRNA level; assay type: functional
3T3-L1 [10] = test: Increase of GLUT4 mRNA expression in mouse 3T3L1 cells at 10 uM by RT-PCR analysis relative to beta-actin mRNA level; assay type: functional
3T3-L1 [11] = test: Increase of 2-deoxyglucose uptake in mouse 3T3L1 cells using 2-deoxy-D-(2,6-3H)-glucose after 2 hrs by liquid scintillation counting; assay type: functional, cell-based
3T3-L1 [12] = test: Increase of aP2 mRNA expression in mouse 3T3L1 cells at 10 uM by RT-PCR analysis relative to beta-actin mRNA level; assay type: functional
3T3-L1 [13] = test: Increase of C/EBPbeta mRNA expression in mouse 3T3L1 cells at 30 uM by RT-PCR analysis relative to beta-actin mRNA level; assay type: functional
3T3-L1 [14] = test: Increase of PPARgamma2 mRNA expression in mouse 3T3L1 cells at 30 uM by RT-PCR analysis relative to beta-actin mRNA level; assay type: functional
3T3-L1 [15] = test: Increase of C/EBPdelta mRNA expression in mouse 3T3L1 cells at 3 uM by RT-PCR analysis relative to beta-actin mRNA level; assay type: functional
3T3-L1 [16] = test: Increase of C/EBPalpha mRNA expression in mouse 3T3L1 cells at 3 uM by RT-PCR analysis relative to beta-actin mRNA level; assay type: functional
3T3-L1 [17] = test: Increase of aP2 mRNA expression in mouse 3T3L1 cells at 3 uM by RT-PCR analysis relative to beta-actin mRNA level; assay type: functional
3T3-L1 [18] = test: Increase of adiponectin mRNA expression in mouse 3T3L1 cells at 30 uM by RT-PCR analysis relative to beta-actin mRNA level; assay type: functional
3T3-L1 [19] = test: Increase of C/EBPalpha mRNA expression in mouse 3T3L1 cells at 10 uM by RT-PCR analysis relative to beta-actin mRNA level; assay type: functional
3T3-L1 [20] = test: Increase of adiponectin mRNA expression in mouse 3T3L1 cells at 10 uM by RT-PCR analysis relative to beta-actin mRNA level; assay type: functional
3T3-L1 [21] = test: Increase of PPARgamma2 mRNA expression in mouse 3T3L1 cells at 10 uM by RT-PCR analysis relative to beta-actin mRNA level; assay type: functional
3T3-L1 [22] = test: Increase of aP2 mRNA expression in mouse 3T3L1 cells at 30 uM by RT-PCR analysis relative to beta-actin mRNA level; assay type: functional
3T3-L1 [23] = test: Increase of GLUT4 mRNA expression in mouse 3T3L1 cells at 30 uM by RT-PCR analysis relative to beta-actin mRNA level; assay type: functional
3T3-L1 [24] = test: Increase of C/EBPalpha mRNA expression in mouse 3T3L1 cells at 30 uM by RT-PCR analysis relative to beta-actin mRNA level; assay type: functional
3T3-L1 [25] = test: Increase of GLUT4 mRNA expression in mouse 3T3L1 cells at 3 uM by RT-PCR analysis relative to beta-actin mRNA level; assay type: functional
3T3-L1 [26] = test: Increase of C/EBPdelta mRNA expression in mouse 3T3L1 cells at 30 uM by RT-PCR analysis relative to beta-actin mRNA level; assay type: functional
3T3-L1 [27] = test: Increase of C/EBPbeta mRNA expression in mouse 3T3L1 cells at 3 uM by RT-PCR analysis relative to beta-actin mRNA level; assay type: functional
3T3-L1 [28] = test: Increase of C/EBPbeta mRNA expression in mouse 3T3L1 cells at 10 uM by RT-PCR analysis relative to beta-actin mRNA level; assay type: functional
3T3-L1 [29] = test: Increase of adiponectin mRNA expression in mouse 3T3L1 cells at 3 uM by RT-PCR analysis relative to beta-actin mRNA level; assay type: functional
[30] = target: T1, Peroxisome proliferator-activated receptor gamma (Homo sapiens) (UniProt P37231); test: Agonist activity at PPARgamma (unknown origin) at 0.01 to 100 uM by nuclear receptor cofactor assay
T1 sequence (whole entry): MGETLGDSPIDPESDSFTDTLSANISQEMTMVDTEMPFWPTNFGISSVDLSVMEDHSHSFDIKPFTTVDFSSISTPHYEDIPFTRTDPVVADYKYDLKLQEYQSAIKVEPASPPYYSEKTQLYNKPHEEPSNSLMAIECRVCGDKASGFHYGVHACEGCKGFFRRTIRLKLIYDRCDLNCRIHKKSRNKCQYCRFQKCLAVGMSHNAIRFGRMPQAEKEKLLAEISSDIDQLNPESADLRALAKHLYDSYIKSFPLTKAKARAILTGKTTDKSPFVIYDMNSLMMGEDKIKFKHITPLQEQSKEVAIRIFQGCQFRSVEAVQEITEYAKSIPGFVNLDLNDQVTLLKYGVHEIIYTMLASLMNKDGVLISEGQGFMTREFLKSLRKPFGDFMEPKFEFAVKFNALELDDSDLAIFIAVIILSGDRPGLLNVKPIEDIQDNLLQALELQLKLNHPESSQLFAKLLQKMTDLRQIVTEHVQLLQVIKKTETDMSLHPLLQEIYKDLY

3T3-L1 [31] = test: Increase of PPARgamma2 mRNA expression in mouse 3T3L1 cells at 3 uM by RT-PCR analysis relative to beta-actin mRNA level; assay type: functional

CC(C)NC(=O)/C=C/C=C/CC/C=C/c1ccc2c(c1)OCO2
Activity (3T3-L1 [1]): 43.1%
Activity (3T3-L1 [2]): 39.4%
viability at 3 µM [3]: 96.6%
viability at 1 µM [4]: 94.8%
viability at 0.3 µM [5]: 95%
viability at 10 µM [6]: 96.1%
viability at 30 µM [7]: 102%

CC(C)CNC(=O)/C=C/C=C/CC/C=C/c1ccc2c(c1)OCO2 [RETROFRACTAMIDE A]
Activity (3T3-L1 [1]): 22.9%
Activity (3T3-L1 [2]): 38%
viability at 3 µM [3]: 109%
viability at 1 µM [4]: 98.1%
viability at 0.3 µM [5]: 100%
viability at 10 µM [6]: 108%
viability at 30 µM [7]: 109%

CC(C)COC(=O)/C=C/C=C/CC/C=C/c1ccc2c(c1)OCO2
Activity (3T3-L1 [1]): 21.7%
Activity (3T3-L1 [2]): 20%
viability at 30 µM [7]: 21.7%

Cc1c(C)c2c(c(C)c1O)CCC(C)(COc1ccc(CC3SC(=O)NC3=O)cc1)O2 (stereo not drawn)
Activity (3T3-L1 [8]): Active

O=C(/C=C/C=C/CC/C=C/c1ccc2c(c1)OCO2)N1CCCCC1 [DEHYDROPIPERNOLINE]
Activity (3T3-L1 [2]): 21.6%

CCCCNC(=O)/C=C/C=C/CC/C=C/c1ccc2c(c1)OCO2
Activity (3T3-L1 [1]): 46.2%
Activity (3T3-L1 [2]): 55.9%
viability at 3 µM [3]: 87.1%
viability at 1 µM [4]: 94.8%
viability at 0.3 µM [5]: 96.2%
viability at 10 µM [6]: 69.3%
viability at 30 µM [7]: 78.7%

COC(=O)/C=C/C=C/CC/C=C/c1ccc2c(c1)OCO2
Activity (3T3-L1 [1]): 4%
Activity (3T3-L1 [2]): 4.6%

CC(C)CNC(=O)CCCCCCCCc1ccc2c(c1)OCO2
Activity (3T3-L1 [1]): 31.9%
Activity (3T3-L1 [2]): 13.3%
viability at 3 µM [3]: 104%
viability at 1 µM [4]: 105%
viability at 0.3 µM [5]: 99.3%
viability at 10 µM [6]: 111%
viability at 30 µM [7]: 109%

CCCNC(=O)/C=C/C=C/CC/C=C/c1ccc2c(c1)OCO2
Activity (3T3-L1 [1]): 18.7%
Activity (3T3-L1 [2]): 42.7%
viability at 3 µM [3]: 102%
viability at 1 µM [4]: 104%
viability at 0.3 µM [5]: 101%
viability at 10 µM [6]: 87.5%
viability at 30 µM [7]: 68.4%

CCCCCNC(=O)/C=C/C=C/CC/C=C/c1ccc2c(c1)OCO2
Ratio (3T3-L1 [9]): 1.5
Ratio (3T3-L1 [10]): 3.89
Activity (3T3-L1 [1]): 58.8%
Activity (3T3-L1 [2]): 55.4%
Activity (3T3-L1 [11]): Dose-dependent effect
Ratio (3T3-L1 [12]): 3.18
Ratio (3T3-L1 [13]): 2.91
Ratio (3T3-L1 [14]): 2.57
Ratio (3T3-L1 [15]): 0.79
Ratio (3T3-L1 [16]): 0.81
Ratio (3T3-L1 [17]): 0.86
Ratio (3T3-L1 [18]): 2.16
Ratio (3T3-L1 [19]): 1.27
Ratio (3T3-L1 [20]): 1.3
Ratio (3T3-L1 [21]): 1.76
Ratio (3T3-L1 [22]): 3.09
Ratio (3T3-L1 [23]): 4.22
viability at 3 µM [3]: 105%
Ratio (3T3-L1 [24]): 4.91
viability at 1 µM [4]: 102%
viability at 0.3 µM [5]: 98.7%
Ratio (3T3-L1 [25]): 1.55
Ratio (3T3-L1 [26]): 2.64
Ratio (3T3-L1 [27]): 0.98
Ratio (3T3-L1 [28]): 1.6
Ratio (3T3-L1 [29]): 1.04
Activity [30]: Active
Ratio (3T3-L1 [31]): 0.88
viability at 10 µM [6]: 99%
viability at 30 µM [7]: 107%

OC/C=C/C=C/CC/C=C/c1ccc2c(c1)OCO2
Activity (3T3-L1 [2]): 0.6%
